In ChEMBL document CHEMBL2074528, “Canalicular multispecific organic anion transporter/multidrug resistance protein 2 mediates low-affinity transport of reduced glutathione” (Biochem J, 1999):

How the values were obtained:
[1] = target: MRP2 (ABCC2) (Homo sapiens, UniProt Q92887); assay: in vitro; details: dog, membrane vesicles from MRP2-expressing MDCK cells, probe DNP-SG
Description: TP_TRANSPORTER: inhibition of DNP-SG uptake (DNP-SG: 0.015 uM, GSH: 15 mM) in membrane vesicles from MRP2-expressing MDCK cells

[2] = substrate: N[C@@H](CCC(=O)N[C@H](CSc1ccc([N+](=O)[O-])cc1[N+](=O)[O-])C(=O)NCC(=O)O)C(=O)O; assay: TP_TRANSPORTER: uptake in membranes from MRP2-expressing MDCK cells; format: functional, cell membranes, MDCK-II, Membrane

## N[C@@H](CCC(=O)N[C@@H](CS)C(=O)NCC(=O)O)C(=O)O [GLUTATHIONE]
[1]
  activity at 15 mM: 51%

B1: ATP-binding cassette sub-family C member 2 (Homo sapiens) (protein)
chain: MLEKFCNSTFWNSSFLDSPEADLPLCFEQTVLVWIPLGYLWLLAPWQLLHVYKSRTKRSSTTKLYLAKQVFVGFLLILAAIELALVLTEDSGQATVPAVRYTNPSLYLGTWLLVLLIQYSRQWCVQKNSWFLSLFWILSILCGTFQFQTLIRTLLQGDNSNLAYSCLFFISYGFQILILIFSAFSENNESSNNPSSIASFLSSITYSWYDSIILKGYKRPLTLEDVWEVDEEMKTKTLVSKFETHMKRELQKARRALQRRQEKSSQQNSGARLPGLNKNQSQSQDALVLEDVEKKKKKSGTKKDVPKSWLMKALFKTFYMVLLKSFLLKLVNDIFTFVSPQLLKLLISFASDRDTYLWIGYLCAILLFTAALIQSFCLQCYFQLCFKLGVKVRTAIMASVYKKALTLSNLARKEYTVGETVNLMSVDAQKLMDVTNFMHMLWSSVLQIVLSIFFLWRELGPSVLAGVGVMVLVIPINAILSTKSKTIQVKNMKNKDKRLKIMNEILSGIKILKYFAWEPSFRDQVQNLRKKELKNLLAFSQLQCVVIFVFQLTPVLVSVVTFSVYVLVDSNNILDAQKAFTSITLFNILRFPLSMLPMMISSMLQASVSTERLEKYLGGDDLDTSAIRHDCNFDKAMQFSEASFTWEHDSEATVRDVNLDIMAGQLVAVIGPVGSGKSSLISAMLGEMENVHGHITIKGTTAYVPQQSWIQNGTIKDNILFGTEFNEKRYQQVLEACALLPDLEMLPGGDLAEIGEKGINLSGGQKQRISLARATYQNLDIYLLDDPLSAVDAHVGKHIFNKVLGPNGLLKGKTRLLVTHSMHFLPQVDEIVVLGNGTIVEKGSYSALLAKKGEFAKNLKTFLRHTGPEEEATVHDGSEEEDDDYGLISSVEEIPEDAASITMRRENSFRRTLSRSSRSNGRHLKSLRNSLKTRNVNSLKEDEELVKGQKLIKKEFIETGKVKFSIYLEYLQAIGLFSIFFIILAFVMNSVAFIGSNLWLSAWTSDSKIFNSTDYPASQRDMRVGVYGALGLAQGIFVFIAHFWSAFGFVHASNILHKQLLNNILRAPMRFFDTTPTGRIVNRFAGDISTVDDTLPQSLRSWITCFLGIISTLVMICMATPVFTIIVIPLGIIYVSVQMFYVSTSRQLRRLDSVTRSPIYSHFSETVSGLPVIRAFEHQQRFLKHNEVRIDTNQKCVFSWITSNRWLAIRLELVGNLTVFFSALMMVIYRDTLSGDTVGFVLSNALNITQTLNWLVRMTSEIETNIVAVERITEYTKVENEAPWVTDKRPPPDWPSKGKIQFNNYQVRYRPELDLVLRGITCDIGSMEKIGVVGRTGAGKSSLTNCLFRILEAAGGQIIIDGVDIASIGLHDLREKLTIIPQDPILFSGSLRMNLDPFNNYSDEEIWKALELAHLKSFVASLQLGLSHEVTEAGGNLSIGQRQLLCLGRALLRKSKILVLDEATAAVDLETDNLIQTTIQNEFAHCTVITIAHRLHTIMDSDKVMVLDNGKIIECGSPEELLQIPGPFYFMAKEAGIENVNSTKF
[2]
  Km: 70 µM
